Experimental data published in publication PMC7074166, “Screening for Small Molecule Modulators of Trypanosoma brucei Hsp70 Chaperone Activity Based upon Alcyonarian Coral-Derived Natural Products” (Marine Drugs, 2020).
Read-outs that look alike come from different tables or passages of the source.

Assays:
phosphodiesterase-4D = biological target: phosphodiesterase-4D; design: method as in PMID 24473168; details: read-out: IC50 against phosphodiesterase-4D; cited from earlier work
c-Met kinase = system: c-Met kinase; design: method as in PMID 23081922; details: 10 μM; cited from earlier work
TbHsp70 = biological target: T1, TbHsp70 (Trypanosoma brucei brucei, UniProt P11145); test: Basal ATPase activity assay, TbHsp70; type: biochemical
T1 construct: His-tag; made in house; host or cells: Escherichia coli
Protocol: (§1) The determination of the ATPase activity of the Hsp70 proteins was performed using the high throughput colorimetric ATPase assay kit (Innova Biosciences, Cambridge, UK). This method enables the quantification of the inorganic phosphate (Pi) released from ATP hydrolysis by an enzyme. Briefly, the molecular chaperones were prepared in ATPase assay buffer (100 mM Tris-HCl, 7.5, 2 mM MgCl2, 50 mM KCl, 0.5 mM DTT) and incubated with ATP (0–2 mM) for 1 h at 37 °C. […] The samples containing Pi hydrolysed from ATP were incubated with the PiColorLock™ solution, which is a malachite green dye solution that in the presence of Pi changes absorbance due to generation of molybdate-phosphate complexes. The absorbance was measured at 595 nm using a Powerwave 96-well plate reader (BioTek Instruments, Inc., Winooski, VT, USA), and absorbance values were converted to phosphate concentrations using a standard curve of absorbance vs. phosphate concentration based on a set of Pi standards provided by the supplier assayed along with the samples. All samples were corrected for spontaneous breakdown of ATP observed in a control experiment in the absence of protein. The trypanosomal and human Hsp70s were used at 0.8 μM, and the J-proteins were used at 0.4 μM. An initial screen of the modulatory effects of the compounds on the ATPase activity of the Hsp70s was conducted using 300 μM of the compounds. […]

TbHsp70 / Tbj2 = biological target: T2, TbHsp70 / Tbj2 (Trypanosoma brucei brucei, UniProt P11145); test: Tbj2-stimulated ATPase activity assay, TbHsp70; type: biochemical; details: TbHsp70, 150 μM, Figure 5A
T2 construct: His-tag; made in house; host or cells: Escherichia coli (Tbj2: E. coli BL21 (DE3))
Protocol: (§2) The determination of the ATPase activity of the Hsp70 proteins was performed using the high throughput colorimetric ATPase assay kit (Innova Biosciences, Cambridge, UK). This method enables the quantification of the inorganic phosphate (Pi) released from ATP hydrolysis by an enzyme. Briefly, the molecular chaperones were prepared in ATPase assay buffer (100 mM Tris-HCl, 7.5, 2 mM MgCl2, 50 mM KCl, 0.5 mM DTT) and incubated with ATP (0–2 mM) for 1 h at 37 °C. […] The samples containing Pi hydrolysed from ATP were incubated with the PiColorLock™ solution, which is a malachite green dye solution that in the presence of Pi changes absorbance due to generation of molybdate-phosphate complexes. The absorbance was measured at 595 nm using a Powerwave 96-well plate reader (BioTek Instruments, Inc., Winooski, VT, USA), and absorbance values were converted to phosphate concentrations using a standard curve of absorbance vs. phosphate concentration based on a set of Pi standards provided by the supplier assayed along with the samples. All samples were corrected for spontaneous breakdown of ATP observed in a control experiment in the absence of protein. The trypanosomal and human Hsp70s were used at 0.8 μM, and the J-proteins were used at 0.4 μM. An initial screen of the modulatory effects of the compounds on the ATPase activity of the Hsp70s was conducted using 300 μM of the compounds. Compounds identified to have a modulatory effect on the basal and J-protein-stimulated ATPase activity of Hsp70 were used at varying concentrations. The modulatory effect of the selected compounds on the basal and J-protein stimulated ATPase activity of the T. brucei Hsp70s was represented as fold change with the basal and J-protein stimulated ATPase activity of the Hsp70s taken as 1 respectively. These experiments were conducted on three independently purified batches of proteins, but due to limited availability of the selected compounds, each assay was conducted in duplicate on each batch of protein. In control reactions to evaluate the effect of DMSO on basal and J-protein stimulated ATPase activity of the Hsp70s, the solvent was added to a final concentration of 1% (v/v) in the assay. The assays were performed in duplicate on three independently purified batches of proteins.

TbHsp70.4 / Tbj2 = test: Tbj2-stimulated ATPase activity assay, TbHsp70.4; type: biochemical, Trypanosoma brucei; details: TbHsp70.4, 150 μM, Figure 5B
Protocol: as §2

TbHsp70.4 = test: Basal ATPase activity assay, TbHsp70.4; type: biochemical, Trypanosoma brucei; details: TbHsp70.4, 1 μM
Protocol: as §1

[1] = system: bloodstream form T. b. brucei parasites; test: Resazurin-based anti-trypanosomal assay on bloodstream form T. b. brucei parasites; type: cell-based, Trypanosoma brucei brucei; details: Trypanosoma brucei
Protocol: Bloodstream form T. b. brucei Lister 927 variant 221 strain parasites were cultured in filter sterilized complete Iscoves Modified Dulbeccos Media (IMDM) based HM1-9 medium (IMDM base powder, […] sodium bicarbonate, 1 mM hypoxanthine, 1 mM sodium pyruvate, 0.16 mM thymidine, 0.05 mM bathocuprone sulphate acid, 10% (v/v) heat inactivated foetal bovine serum, 1.5 mM L-cysteine, 0.2 mM β-mercaptoethanol, pH 7.5) in a humidified chamber at 37 °C with an atmosphere of 5% CO2. Parasite growth was monitored using a Neubauer haemocytometer to count the cell number, after which cells were diluted, according to their density, in the described pre-warmed media.
All compounds of interest were resuspended to stocks of 30 mM in DMSO and stored at −80 °C prior to use in in vitro experiments. For assessment of anti-trypanosomal activity, compounds were added to in vitro cultures of bloodstream form T. b. brucei parasites (1 × 10^5 cells/mL) in 96-well plates at a fixed concentration of 20 μM. After an incubation period of 48 h, the number of parasites surviving drug exposure were determined using a resazurin-based cytotoxicity assay. Resazurin is an oxidation–reduction sensitive dye that is reduced by living cells to resorufin. Resorufin is a fluorophore (Excitation560/Emission590) and thus was quantified in a multi-well fluorescence plate reader. Results are expressed as % parasite viability—the resorufin fluorescence in small molecule-treated wells relative to untreated controls. Assessment of each small molecule was conducted in duplicate, with error bars representing standard deviation (SD). […] The compounds were added to in vitro cultures of bloodstream form T. b. brucei parasites (1 × 10^5 cells/mL) in 96-well plates in a 3-fold dilution series with 100 μM as the highest concentration. After an incubation period of 48 h, the number of parasites surviving drug exposure were determined as previously mentioned. The % parasite viability was determined as previously mentioned. The IC50 (the concentration of compound required to decrease cell viability of T. b. brucei parasites by 50% compared to those grown in the absence of the compound) values for each of the compounds were determined from a dose–response curve by non-linear regression generated using GraphPad Prism® (v. 7.0; San Diego, CA, USA) software. For comparative purposes, pentamidine at a fixed concentration of 1 μM was employed as a drug standard.

PfHsp70-1 = system: PfHsp70-1; design: method as in PMID 21426241; details: cited from earlier work
P. falciparum = system: P. falciparum; design: method as in PMID 21426241; details: read-out: IC50 against P. falciparum; cited from earlier work
plasmodial Hsp70s = system: plasmodial Hsp70s; design: method as in PMID 24854538; details: cited from earlier work
human Hsp70 = system: human Hsp70; design: method as in PMID 24854538; details: cited from earlier work
[2] = Resazurin-based cytotoxicity assay on a mammalian cell line; design: species or system human; details: human; HeLa cells, 10 μM
Protocol: HeLa cells were grown and maintained in a culture medium comprised of Dulbecco’s Modified Eagle’s Medium (DMEM) with 5 mM L-glutamine (Lonza, Basel, Switzerland), supplemented with 10% (v/v) heat inactivated foetal bovine serum and antibiotics (penicillin/streptomycin/fungizone-PSF) in a humidified chamber at 37 °C with an atmosphere of 5% CO2. To carry out passaging of cells, cultures were treated with 1% trypsin (w/v) to lift cells, which were then washed in 1 × phosphate buffered saline (PBS) before being re-seeded into culture flasks. For assessment of the cytotoxic effects, the small molecules were added to HeLa cells at a fixed concentration of 20 μM. After an incubation period of 24 h, the number of cells surviving drug exposure were determined using a resazurin-based cytotoxicity assay. The resazurin-based cytotoxicity assay was conducted as previously mentioned. Results were expressed as % cell—the resorufin fluorescence in small molecule-treated wells relative to untreated controls. Assessment of each small molecule was conducted in duplicate, with error bars representing standard deviation (SD).

[3] = T. b. brucei parasites, stated as bound, read-out: IC50 values
[4] = Table 1, T. b. brucei parasites cultured in vitro, 48 h, dose-response, read-out: IC50/μM
[5] = Table S1, 48 select compounds, T. b. brucei, 48 h, read-out: IC50/

T1 sequence (P11145 whole entry): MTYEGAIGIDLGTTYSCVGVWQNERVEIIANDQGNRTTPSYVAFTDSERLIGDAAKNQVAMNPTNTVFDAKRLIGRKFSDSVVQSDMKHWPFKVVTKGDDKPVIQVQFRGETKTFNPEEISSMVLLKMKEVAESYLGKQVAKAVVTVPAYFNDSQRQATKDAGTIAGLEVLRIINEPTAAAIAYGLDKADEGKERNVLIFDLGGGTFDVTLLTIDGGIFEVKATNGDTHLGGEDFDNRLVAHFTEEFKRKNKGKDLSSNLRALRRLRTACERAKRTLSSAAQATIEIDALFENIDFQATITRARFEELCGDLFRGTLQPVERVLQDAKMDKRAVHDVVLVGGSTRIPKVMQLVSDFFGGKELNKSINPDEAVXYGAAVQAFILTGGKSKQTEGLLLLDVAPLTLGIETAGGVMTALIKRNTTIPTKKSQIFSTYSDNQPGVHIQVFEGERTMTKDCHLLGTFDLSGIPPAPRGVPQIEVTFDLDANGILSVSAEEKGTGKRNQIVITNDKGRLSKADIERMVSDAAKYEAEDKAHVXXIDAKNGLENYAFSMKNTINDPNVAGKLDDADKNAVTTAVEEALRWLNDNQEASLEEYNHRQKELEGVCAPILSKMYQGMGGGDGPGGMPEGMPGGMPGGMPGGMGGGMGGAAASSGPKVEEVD
T2 sequence (P11145 whole entry): as above

Question: For CC(C)=CC(=O)C/C(C)=C/CC/C(C)=C/CC/C(C)=C/Cn1cnc2c1c(=O)ncn2C [malonganenone L], which IC50 (phosphodiesterase-4D) is on record?
Answer: 8.5 µM

Question: With C/C(=C\CC/C(C)=C/Cn1cnc2c1c(=O)ncn2C)CC/C=C(\C)CC(=O)CC(C)C [malonganenone D] as the compound, how does the “reduction of c-Met kinase activity” value (c-Met kinase) read?
Answer: 2 fold

Question: Which results are given for CC(C)=CCC/C(C)=C/CCC(C)=CCn1cnc2c(cnn2CC=C(C)CC/C=C(\C)CCC=C(C)C)c1=O [Compound 47, 1,5-Bis((6E)-3,7,11-trimethyldodeca-2,6,10-trien-1-yl)-1,5-dihydro-4H-pyrazolo[3,4-d]pyrimidin-4-one]?
Answer: inhibition at 1 µM (TbHsp70; TbHsp70, 1 μM): 44%; effect of order of addition (compound vs Tbj2) on inhibition of J-stimulated ATPase activity (TbHsp70 / Tbj2): no significant difference; effect of order of addition (compound vs Tbj2) on inhibition of J-stimulated ATPase activity (TbHsp70.4 / Tbj2): no significant difference; inhibition of basal ATPase activity (TbHsp70.4): 66%; IC50 [1, 3]: < 7 µM; IC50 [1, 4]: 1.2 µM; IC50 [1, 5]: 1.23 µM

Question: With CNC(=O)c1c(N(C)C=O)ncn1C/C=C(\C)CC/C=C(\C)CCC/C(C)=C\C(=O)CC(C)C [malonganenone B] as the compound, how does the “activity against PfHsp70-1” value (PfHsp70-1) read?
Answer: dose-dependent

Question: For CNC(=O)c1c(N(C)C=O)ncn1C/C=C(\C)CC/C=C(\C)CCC/C(C)=C\C(=O)C=C(C)C [malonganenone Q], which IC50 (phosphodiesterase-4D) is on record?
Answer: 20.3 µM

Question: For C/C(=C/C(=O)CC(C)C)CCC/C(C)=C/CC/C(C)=C/Cn1cnc2c1c(=O)ncn2C [malonganenone A], which IC50 (P. falciparum) is on record?
Answer: 0.81 µM

Question: What about the “effect on steady-state and J-protein stimulated ATPase activity” value (plasmodial Hsp70s) of the same compound?
Answer: inhibited

Question: And the “effect on steady-state and J-protein stimulated ATPase activity” value (human Hsp70)?
Answer: not that of human Hsp70

Question: Which viability at 24 h, 10 µM [2] does the source give for CC[C@H]1CN2CCc3cc(OC)c(OC)cc3[C@@H]2C[C@@H]1C[C@H]1NCCc2cc(OC)c(OC)cc21 [Emetine, reference compound] here?
Answer: 6.03%

Question: Which IC50 (P. falciparum) does the source give for C/C(=C/C(=O)CC(C)C)CCC/C(C)=C/CC/C(C)=C/CNC=O [malonganenone C] here?
Answer: 5.2 µM

Question: Which results are given for CC(C)=CCC/C(C)=C/Cn1ccc(=NC=O)n(C/C=C(\C)CCC=C(C)C)c1=O [Compound 60, N-(-1,3-Bis((E)-3,7-dimethylocta-2,6-dien-1-yl)-2-oxo-2,3-dihydropyrimidin-4(1H)-ylidene)formamide]?
Answer: inhibition at 300 µM (TbHsp70; TbHsp70, 300 μM, Figure S6): 39%; IC50 [1, 3]: < 7 µM; IC50 [1, 4]: 4.9 µM; IC50 [1, 5]: 4.89 µM
